The results in this text go back to US9206196B1, “Derivatives of benzoxazino quinoline, benzoxazino isoquinoline and processes for their preparation” (Council of Scientific & Industrial Research, priority 2014, dated 2015).

By IC50 is commonly meant the midpoint of a concentration-inhibition curve.

In this assay the test system is Plasmodium falciparum (3D7). In words: Anti-malarial screen, parasite growth by SybrGreen staining. Format: cell-based. The following applies: dose response assay, test molecules from 10 μM to 1 nM, 60 hours incubation, SybrGreen read out. The protocol: Plasmodium falciparum (3D7; Malaria Research and Reference Reagent Resource Center ID NO: MRA-102) is cultured in the laboratory as per standard protocols. Briefly, P. falciparum is cultured using 2% hematocrit washed RBCs, separated from freshly collected human blood, in Roswell Park Memorial Institute (RPMI) medium containing glutamine, sodium bicarbonate and antibiotics. Parasites are synchronized using either 5% sorbitol treatment or by enriching late stage parasites using a 70% percol cushion. 200 μls of the diluted parasite culture at 2% parasitemia and 2% hematocrit, is added to each well in a 96 well plate pre-seeded with the compound of interest at the required concentration. In general, compounds being screened for the first time are tested at a single concentration of 10 μM to detect any effect they may have on parasite growth. The master stocks and dilutions of the compounds are prepared in cell culture grade DMSO. NOTE: DMSO only treatment control is done and the results are used for normalizing the data obtained from compound treatment. All compounds are plated in triplicates. Each 96 well plate also includes negative control (compound untreated culture) and positive control (standard anti-malarial treated culture). Standard anti-malarials used are chloroquine, artemisinine and atovaquone, each at 1 μM concentration. After plating, the culture is incubated in standard growth condition for 60 hours, after which the cultures are processed for testing the effect of compounds on parasite growth as given below. We have standardized a modified SybrGreen dye based staining protocol (Plouffe D et. al. in Proc Natl Acad Sci, 2008, 105(26), 9059-64) for estimating parasite growth. SybrGreen dye binds to DNA and only the DNA bound dye gives a specific fluorescence emission ([…]) when excited ([…]). Since only the parasites have DNA (as RBCs are devoid of nucleus), the SybrGreen signal is a direct indictor of parasite growth. We have standardized a plate reader based read out assay for quantifying relative parasite growth (or conversely % inhibition of growth) in untreated, standard anti-malarial treated and test molecules treated P. falciparum cultures. 25 μl of 10× staining solution (0.5% Triton X100 & 10× SybrGreen dye in phosphate buffered saline) is added to each sample in 96 well plate, mixed and incubated for 30 min before taking readings. Data obtained is then tabulated to compare parasite growth between untreated, standard anti-malarial treated and compound treated parasite cultures. Compounds showing greater than 80% reduction in parasite growth are selected from this primary screening for carrying out dose response analysis using the respective test molecules from 10 μM to 1 nM. Data from this experiment is used for the calculation of IC50 values for the respective test molecules. Data from the preliminary screen (at 10 μM only) is shown in FIG. 1 and data from the dose response experiment is shown in FIG. 2.

The compound `O=C1C(O)=C([C@H]2CC[C@H](c3ccc(Cl)cc3)CC2)C(=O)c2ccccc21` [Atovaquone, reference compound] showed an IC50 of 0.00711 µM. The same measure for `Cc1cc2c(cc1C)N1c3ccccc3C=C[C@@H]1O[C@@H]2c1ccc(Cl)cc1`: 3.51 µM. The same measure for `CC1=C[C@@H]2O[C@H](c3ccc(Cl)cc3)c3ccccc3N2c2ccccc21`: 3.8 µM. The same measure for `O=C1C=CC2(C=C1)OC1C=Cc3ccccc3N1c1ccccc12` (stereo not drawn): 1.69 µM; for `C1=CC2OC(c3ccccc3)(c3ccccc3)c3ccccc3N2c2ccccc21` (stereo not drawn): 3.87 µM.

In turn, `O=C(c1ccccc1)C1(c2ccccc2)OC2C=Cc3ccccc3N2c2ccccc21` (stereo not drawn) registered a concentration for half-maximal inhibition (IC50) of 2.64 µM.
